Assays:
Assay in all cases: CYP inhibition, recombinant enzyme, fluorescence
Format in all cases: in vitro ADME
[1] = biological target: T1, CYP1A2 (Homo sapiens, UniProt P05177); conditions: recombinant CYP1A2, pH 7.4, 10 μM compound, 30 min pre-incubation, read-out: CYP inhibition (%) at 10 μM, 1A2
T1 sequence (P05177 1-516): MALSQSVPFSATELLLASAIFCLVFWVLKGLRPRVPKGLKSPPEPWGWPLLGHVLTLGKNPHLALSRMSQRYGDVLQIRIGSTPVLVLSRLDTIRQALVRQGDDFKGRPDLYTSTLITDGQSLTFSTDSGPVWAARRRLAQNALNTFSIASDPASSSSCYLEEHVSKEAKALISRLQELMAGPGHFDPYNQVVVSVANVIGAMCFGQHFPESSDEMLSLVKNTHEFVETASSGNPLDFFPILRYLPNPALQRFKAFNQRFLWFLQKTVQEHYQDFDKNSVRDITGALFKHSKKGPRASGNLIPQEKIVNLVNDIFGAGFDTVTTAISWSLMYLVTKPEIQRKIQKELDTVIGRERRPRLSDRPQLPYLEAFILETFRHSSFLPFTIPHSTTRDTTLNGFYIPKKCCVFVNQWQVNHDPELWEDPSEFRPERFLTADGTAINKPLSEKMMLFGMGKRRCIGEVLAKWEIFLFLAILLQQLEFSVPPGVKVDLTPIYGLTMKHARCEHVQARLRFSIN
Protocol: (§1) The following Table 8 was referred for the use of a probe substrate, positive control, and isozyme and measurement conditions with respect to the measurement of the inhibitory ability of each substance. [table] […] The buffer spiked with experimental compound was mixed with the same volume of CYP isozyme prep solution so that the final concentration was 10 μM, followed by pre-warming for 10 minutes in a 37° C. fluorescence plate-reader. Each well NRS solution (NADPH Regeneration System: 0.22 mM β-NADP, 2.8 mM glucose-6-phosphate, and 0.6 units/mL of glucose-6-phosphate dehydrogenase) was added, followed by pre-incubation for 30 minutes. Thereafter, the reaction was initiated by adding the substrate to the well subjected to pre-incubation and monitored at intervals of one minute at the measurement wavelength for each substrate for 30 minutes. The measured values obtained from the positive control and the compound of Example 1 were compared with the fluorescence intensity of a negative control (no inhibition or compound) to confirm the inhibitory ability of each compound against isozyme. Inhibitory activity (%) was expressed based on the following criteria: […]

[2] = biological target: CYP2C19 (Homo sapiens, UniProt P33261); conditions: recombinant CYP2C19, pH 7.4, 10 μM compound, 30 min pre-incubation, read-out: CYP inhibition (%) at 10 μM, 2C19
Protocol: as §1

[3] = biological target: CYP2D6 (Homo sapiens, UniProt P10635); conditions: recombinant CYP2D6, pH 7.4, 10 μM compound, 30 min pre-incubation, read-out: CYP inhibition (%) at 10 μM, 2D6
Protocol: as §1

[4] = biological target: CYP3A4 (Homo sapiens, UniProt P08684); conditions: recombinant CYP3A4, pH 7.4, 10 μM compound, 30 min pre-incubation, read-out: CYP inhibition (%) at 10 μM, 3A4
Protocol: as §1

Chain of CYP2D6 (P10635 whole entry): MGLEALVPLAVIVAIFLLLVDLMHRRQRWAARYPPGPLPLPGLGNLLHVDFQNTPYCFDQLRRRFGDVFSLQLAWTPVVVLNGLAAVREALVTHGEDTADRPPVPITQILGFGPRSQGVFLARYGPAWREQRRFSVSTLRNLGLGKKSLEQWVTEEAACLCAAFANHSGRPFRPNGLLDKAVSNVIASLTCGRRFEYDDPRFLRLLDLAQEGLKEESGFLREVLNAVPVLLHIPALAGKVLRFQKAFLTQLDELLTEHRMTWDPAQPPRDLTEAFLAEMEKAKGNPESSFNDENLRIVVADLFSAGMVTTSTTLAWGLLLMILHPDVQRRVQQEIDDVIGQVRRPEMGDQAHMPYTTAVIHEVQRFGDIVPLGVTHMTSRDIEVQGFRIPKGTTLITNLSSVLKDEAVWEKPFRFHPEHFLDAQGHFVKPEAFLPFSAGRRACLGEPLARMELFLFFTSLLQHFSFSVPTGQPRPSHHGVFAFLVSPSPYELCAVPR
Chain of CYP2C19 (P33261 whole entry): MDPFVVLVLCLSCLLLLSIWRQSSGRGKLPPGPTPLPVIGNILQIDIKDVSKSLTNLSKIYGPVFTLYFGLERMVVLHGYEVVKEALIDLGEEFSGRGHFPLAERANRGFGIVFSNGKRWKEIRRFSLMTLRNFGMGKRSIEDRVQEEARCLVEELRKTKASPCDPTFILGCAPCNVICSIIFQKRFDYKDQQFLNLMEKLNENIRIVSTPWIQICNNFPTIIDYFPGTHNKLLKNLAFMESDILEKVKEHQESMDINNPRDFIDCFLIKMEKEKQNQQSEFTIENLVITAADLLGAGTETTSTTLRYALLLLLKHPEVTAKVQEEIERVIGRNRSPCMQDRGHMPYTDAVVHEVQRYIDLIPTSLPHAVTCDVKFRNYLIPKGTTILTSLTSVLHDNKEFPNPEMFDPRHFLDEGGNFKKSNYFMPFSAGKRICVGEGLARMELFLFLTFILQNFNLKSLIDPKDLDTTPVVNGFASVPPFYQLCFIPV
Chain of CYP3A4 (P08684 whole entry): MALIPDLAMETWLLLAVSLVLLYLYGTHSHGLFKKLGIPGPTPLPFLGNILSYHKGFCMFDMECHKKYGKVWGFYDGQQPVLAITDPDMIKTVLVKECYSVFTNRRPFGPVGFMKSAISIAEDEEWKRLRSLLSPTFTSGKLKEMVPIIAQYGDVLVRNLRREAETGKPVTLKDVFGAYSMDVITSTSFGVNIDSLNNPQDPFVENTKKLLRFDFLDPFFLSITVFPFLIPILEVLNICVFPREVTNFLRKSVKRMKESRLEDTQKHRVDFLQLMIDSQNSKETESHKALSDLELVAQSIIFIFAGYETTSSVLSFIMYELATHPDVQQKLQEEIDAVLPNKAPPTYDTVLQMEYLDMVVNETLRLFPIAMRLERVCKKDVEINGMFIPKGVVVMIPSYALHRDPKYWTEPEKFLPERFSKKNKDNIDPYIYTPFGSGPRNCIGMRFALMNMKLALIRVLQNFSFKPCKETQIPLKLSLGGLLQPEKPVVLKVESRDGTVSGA

inhibition at 30 min, 10 µM [1] [%] | inhibition at 30 min, 10 µM [2] [%] | inhibition at 30 min, 10 µM [3] [%] | inhibition at 30 min, 10 µM [4] [%] | Structure (SMILES)
< 50 | < 50 | < 50 | < 50 | CC(C)C(=O)N([C@H]1C[C@@H](C(=O)N2CCOCC2)N(C(=O)[C@@H]2CN(C(C)(C)C)C[C@H]2c2ccc(Cl)cc2)C1)[C@H]1CC[C@@H](C)CC1.Cl [Example 1, N-((3S,5S)-1-((3S,4R)-1-(tert-butyl)-4-(4-chlorophenyl)pyrrolidine-3-carbonyl)-5-(morpholine-4-carbonyl)pyrrolidin-3-yl)-N-((1s,4R)-4-methylcyclohexyl)isobutyramide hydrochloride]
< 50 | < 50 | < 50 | < 50 | CC(=O)N(C1CCC(C)(C)CC1)[C@H]1C[C@@H](C(=O)N2CCOCC2)N(C(=O)[C@@H]2CN(C(C)(C)C)C[C@H]2c2ccc(Cl)cc2)C1.Cl [Comparative Example 2 (A96), N-((3S,5S)-1-((3S,4R)-1-(tert-butyl)-4-(4-chlorophenyl)pyrrolidine-3-carbonyl)-5-(morpholine-4-carbonyl)pyrrolidin-3-yl)-N-(4,4-dimethylcyclohexyl)acetamide hydrochloride]

— patent US20220289731A1, “MELANOCORTIN-4 RECEPTOR AGONISTS” (LG CHEM, LTD., priority 2019, published 2022)
